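The compound was tested at five concentrations on cells cultured in 96-well plates, with a 48-hour exposure period. The concentration for 50% growth inhibition is given as GI50. Definition used: TGI = concentration required for complete inhibition of growth.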
Legend:
Assay in all cases: NCI anticancer screen, dose series, 48 h
RXF 393 renal = test system: RXF 393 renal
MDA-MB-231 breast = test system: MDA-MB-231 breast
786-0 renal = test system: 786-0 renal
T-47D breast = test system: T-47D breast
TK-10 renal = test system: TK-10 renal
LOX IMVI melanoma = test system: LOX IMVI melanoma
SNB-19 CNS = test system: SNB-19 CNS
PC-3 prostate = test system: PC-3 prostate
MCF7 breast = test system: MCF7 breast
SR leukemia = test system: SR leukemia

SMILES	GI50 (RXF 393 renal) [µM]	TGI (RXF 393 renal) [µM]	GI50 (MDA-MB-231 breast) [µM]	TGI (MDA-MB-231 breast) [µM]	GI50 (786-0 renal) [µM]	TGI (786-0 renal) [µM]	GI50 (T-47D breast) [µM]	TGI (T-47D breast) [µM]	GI50 (TK-10 renal) [µM]	TGI (TK-10 renal) [µM]	GI50 (LOX IMVI melanoma) [µM]	TGI (LOX IMVI melanoma) [µM]	GI50 (SNB-19 CNS) [µM]	TGI (SNB-19 CNS) [µM]	GI50 (PC-3 prostate) [µM]	TGI (PC-3 prostate) [µM]	GI50 (MCF7 breast) [µM]	TGI (MCF7 breast) [µM]	GI50 (SR leukemia) [nM]	TGI (SR leukemia) [µM]
CC(C)[C@@H](CS(=O)(=O)C(C)C)N1C(=O)[C@@](C)(CC(=O)O)C[C@H](c2cccc(Cl)c2)[C@H]1c1ccc(Cl)cc1	19.5	67	18.3	39.2	20.8	75.2	7.91	> 92	28.2	97	0.485	21	14.6	66.5	5.75	> 69.3	0.282	3.52	249	> 40.7
Cc1ccccc1NC(=O)c1sc2nc3c(cc2c1N)C(=O)CCC3	1.62	5.65	3.98	> 100	9.02	> 100	4.81	> 100	4.05	> 100	6.71	> 100	3.1	> 100	3.13	> 100	1.58	> 100	2930	> 100
Cc1ccc(-n2c(-c3ccc(Cl)cc3)cs/c2=N\NC(=O)COc2n[nH]c(=O)c3ccccc23)cc1	30.8	> 100	68.4	> 100	51.4	> 100	> 100	> 100	52.7	> 100	> 100	> 100	40	> 100	> 100	> 100	70.7	> 100	> 100000	> 100
COc1cccc2c1C(=O)c1c(O)c3c(c(O)c1C2=O)C[C@@](O)(/C(C)=N\O)C[C@@H]3OC1CC(N)C(O)C(C)O1 (stereo partly drawn)	–	4.76	–	7.17	–	11.1	–	11	–	37.2	–	6.06	–	8.93	–	8.08	–	9.97	–	2.97
C[C@@]12CCC[C@@](C)(C(=O)O)C1CC[C@@]13CC(=O)[C@@](CO)(CCC12)C3 (stereo partly drawn)	> 100	> 100	> 100	> 100	> 100	> 100	> 100	> 100	> 100	> 100	> 100	> 100	> 100	> 100	> 100	> 100	> 100	> 100	> 100000	> 100
COC(=O)[C@]12CC[C@@H](C)[C@H](C)[C@@H]1C1=CC[C@@H]3[C@@]4(C)C=C(O)C(=O)C(C)=C4CC[C@@]3(C)[C@]1(C)CC2	12.1	27.9	13	30.2	16.4	32.6	5.86	30.8	18.2	35.8	13	27.4	18.7	40.9	4.16	18.4	10.8	26.9	5290	28.2
N#CC(=S)Nc1ccc(F)cc1	–	> 100	–	> 100	–	> 100	–	> 100	–	> 100	–	> 100	–	> 100	–	> 100	–	> 100	–	> 100
O=C(Nc1ccccc1F)c1ccc(NC2=C(Cl)C(=O)N(Cc3ccccc3)C2=O)cc1	5.09	16.6	2.8	13.8	14	27	3.06	8.01	–	–	2.35	5.9	11.6	23.8	3.39	12.8	2.02	5.06	660	2.46
C=C1CO[C@@H]2C[C@@H]1CCC1(C)OC1CC/C(C)=C/CC[C@@]2(C)O (stereo partly drawn)	23.6	64.1	14.9	36.1	> 20.3	> 53.5	26.7	> 69.2	> 100	> 100	7.55	21.4	> 85.9	> 100	18.5	36.9	24.7	> 60.6	1290	2.72

Reference: PubChem BioAssay (NCI)
